According to patent US9463247B2, “Branched alkyl and cycloalkyl terminated biodegradable lipids for the delivery of active agents” (ALNYLAM PHARMACEUTICALS, INC., priority 2011, dated 2016):

Test system: Factor VII (FVII)
Assay: In vivo determination of efficacy of lipid formulations: FVII knockdown in mice (Biophen FVII chromogenic assay)
Set-up: species or system mouse (C57Bl/6)
Conditions: FVII siRNA lipid formulation containing the cationic lipid; i.v. lateral tail vein; female C57Bl/6 mice; serum 24 hours later; dose resulting in a 50% reduction in plasma FVII levels compared to control animals
Procedure: Test formulations were prepared using the following in-line mixing method: […]
Individual and separate stock solutions are prepared—one containing lipid and the other siRNA. Lipid stock containing lipid A, DSPC, cholesterol and PEG lipid is prepared by solubilized in 90% ethanol. The remaining 10% is low pH citrate buffer. The concentration of the lipid stock is 4 mg/mL. The pH of this citrate buffer can range between pH 3-5, depending on the type of fusogenic lipid employed. The siRNA is also solubilized in citrate buffer at a concentration of 4 mg/mL. For small scale, 5 mL of each stock solution is prepared.
Stock solutions are completely clear and lipids must be completely solubilized before combining with siRNA. Therefore stock solutions may be heated to completely solubilize the lipids. The siRNAs used in the process may be unmodified oligonucleotides or modified and may be conjugated with lipophilic moieties such as cholesterol.
The individual stocks are combined by pumping each solution to a T-junction. A dual-head Watson-Marlow pump is used to simultaneously control the start and stop of the two streams. A 1.6 mm polypropylene tubing is further downsized to a 0.8 mm tubing in order to increase the linear flow rate. The polypropylene line (ID=0.8 mm) are attached to either side of a T-junction. The polypropylene T has a linear edge of 1.6 mm for a resultant volume of […]. Each of the large ends (1.6 mm) of polypropylene line is placed into test tubes containing either solubilized lipid stock or solubilized siRNA. After the T-junction a single tubing is placed where the combined stream will emit. The tubing is then extending into a container with 2× volume of PBS. The PBS is rapidly stirring. The flow rate for the pump is at a setting of 300 rpm or 110 mL/min. Ethanol is removed and exchanged for PBS by dialysis. The lipid formulations are then concentrated using centrifugation or diafiltration to an appropriate working concentration.
Test formulations are initially assessed for their FVII knockdown in female 7-9 week old, 15-25 g, female C57Bl/6 mice at 0.1, 0.3, 1.0 and 5.0 mg/kg with 3 mice per treatment group. All studies include animals receiving either phosphate-buffered saline (PBS, Control group) or a benchmark formulation. Formulations are diluted to the appropriate concentration in PBS immediately prior to testing. Mice are weighed and the appropriate dosing volumes calculated (10 μl/g body weight). Test and benchmark formulations as well as PBS (for Control animals) are administered intravenously via the lateral tail vein. Animals are anesthetised 24 hours later with an intraperitoneal injection of Ketamine/Xylazine and 500-700 μl of blood is collected by cardiac puncture into serum separator tubes (BD Microtainer). Blood is centrifuged at 2,000×g for 10 minutes at 15° C. and serum is collected and stored at −70° C. until analysis. Serum samples are thawed at 37° C. for 30 minutes, diluted in PBS and aliquoted into 96-well assay plates. Factor VII levels are assessed using a chromogenic assay (Biophen FVII kit, Hyphen BioMed) according to manufacturer's instructions and absorbance is measured in a microplate reader equipped with a 405 nm wavelength filter. Plasma FVII levels are quantified and ED50s (dose resulting in a 50% reduction in plasma FVII levels compared to control animals) calculated using a standard curve generated from a pooled sample of serum from control animals. Those formulations of interest showing high levels of FVII knockdown (ED50<<0.1 mg/kg) are re-tested in independent studies at a lower dose range to confirm potency and establish ED50 levels.

Row | Structure (SMILES) | ED50 (Mouse FVII) [mg/kg]
1 | CN(C)CCCC(=O)OC(CCCCCCCCC(=O)OC1CCCCC1)CCCCCCCCC(=O)OC1CCCCC1 | >0.30
2 | CC(OCCCCCCCCCC(CCCCCCCCCOC(=O)C1CCCCC1)OC(=O)CCCN(C)C)C1CCCCC1 (centres unmarked) | 0.032
3 | CCCCC(CCCC)OC(=O)CCCCCCCCC(CCCCCCCCC(=O)OC(CCCC)CCCC)OC(=O)CCCN(C)C | 0.010
4 | CN(C)CCCC(=O)OC(CCCCCCCCCOC(=O)C1CCCC1)CCCCCCCCCOC(=O)C1CCCC1 | >0.30
5 | CN(C)CCCC(=O)OC(CCCCCCCCCOC(=O)CCC1CCCC1)CCCCCCCCCOC(=O)CCC1CCCC1 | 0.023
6 | CN(C)CCCC(=O)OC(CCCCCCCCC(=O)OC1CCCC1)CCCCCCCCC(=O)OC1CCCC1 | >0.30
7 | CN(C)CCCC(=O)OC(CCCCCCCCC(=O)OCCCC1CCCC1)CCCCCCCCC(=O)OCCCC1CCCC1 | 0.12
8 | CN(C)CCCC(=O)OC(CCCCCC(=O)OC1CCCCC1)CCCCCC(=O)OC1CCCC1 (centres unmarked) | >0.30
9 | CN(C)CCCC(=O)OC(CCCCCC(=O)OC1CCCC1)CCCCCC(=O)OC1CCCC1 | >0.30
10 | CCCCC(C)C(=O)OCCCCCCCCCC(CCCCCCCCCOC(=O)C(C)CCCC)OC(=O)CCCN(C)C (centres unmarked) | >0.30
11 | CCCCC(CCCC)OC(=O)CCCCCC(CCCCCC(=O)OC(CCCC)CCCC)OC(=O)CCCN(C)C | >0.30
12 | CCCCCC(CCCC)OC(=O)CCCCCCCCC(CCCCCCCCC(=O)OC(CCCC)CCCCC)OC(=O)CCCN(C)C (centres unmarked) | 0.009
13 | CCCCCC(CC)C(=O)OCCCCCCCCCC(CCCCCCCCCOC(=O)C(CC)CCCCC)OC(=O)CCCN(C)C (centres unmarked) | 0.008
14 | CCCCCCOC(=O)CCCCCCCCCCCC(CCCCCCCCCCCC(=O)OCCCCCC)OC(=O)CCCN(C)C | 0.013
15 | CC(C)CC(CC(C)C)OC(=O)CCCCCCCCCCCC(CCCCCCCCCCCC(=O)OC(CC(C)C)CC(C)C)OC(=O)CCCN(C)C | 0.020
16 | CCCCC(CC)C(=O)OCCCCCCCCCC(CCCCCCCCCOC(=O)C(CC)CCCC)OC(=O)CCCN(C)C (centres unmarked) [drawing 149] | 0.005
17 | CCCCC(CC)C(=O)OCCCCCCCCCC(CCCCCCCCCOC(=O)C(CC)CCCC)OC(=O)CCCN(C)C (centres unmarked) [drawing 162] | 0.088
